What all share (assay type): in vivo, human
One data set in a line: Serum/water ratio. The settings on record: median serum level of first samples (26 employees) divided by airport drinking-water level. The method, then:
The ratio of serum and water concentration for each PFAS (serum/water ratio) was calculated based on median serum level in the first serum sample obtained from all 26 airport employees divided by the drinking-water concentration. This ratio is an indicator of PFAS accumulation in body.

A short description of data set [1]: Urine/serum ratio in paired samples. To be noted: for Personal average urine/serum ratio, median (range): mean of four paired samplings per subject, 17 airport employees. The method, then:
(§1) Urinary PFAS concentrations were specific-gravity adjusted. The ratio of urine and serum concentration for each PFAS (urine/serum ratio) at each sampling was calculated based on PFAS concentrations in paired serum and urine samples from 17 employees. Then the personal average urine/serum ratio was calculated using the mean value of repeated samplings for each employee.

Data set [2] can be described thus: PFAS levels in urine samples of airport employees, specific-gravity adjusted (LC/MS/MS). To be noted: for Specific gravity adjusted urine level, median (range): second to fifth samplings, 17 airport employees. The method, then: Only one employee provided a single urine sample. […] All employees provided written informed consent.
The samples were thawed 1–2 h, then mixed by vortex shaker and manual turning. […] For the urine samples, 50μL urine was mixed with 25μL of methanol and 25μL of a 50% acetonitrile solution containing isotopically labeled internal standards (see Table S1). Then samples were shaken vigorously for 30 min and centrifuged at 3,000×g for 10 min at room temperature.
Aliquots of 20μL of the sample were analyzed using LC/MS/MS. […] The analysis was performed in negative ion mode. The ion source temperature was at 350°C.
as §1

A short description of data set [3]: Background serum PFAS levels in reference population from Karlshamn. To be noted: reference group from Karlshamn without PFAS contamination in drinking water, N=58, sampled 2016. The text has this:
For comparison with Swedish general background PFAS serum levels, we referred to the PFAS levels observed in a reference population from Karlshamn, a municipality in southern Sweden without PFAS contamination in the municipal drinking water. In 2016, 226 individuals were sampled. Fifty-nine individuals were randomly selected for analyzing other short-chain PFAS than the legacy ones, using the same modified method as for the airport employees. Fifty-eight individuals within the same age range as the airport employees (i.e., >22 years of age ) were included in the comparison. For a detailed description of this population see Li et al. ([2018]).

Where [4] appears, read: 2nd sampling (October 2018), count 17.
The mark [5] stands for this setting: 3rd sampling (November, 2018), count 16.
Setting [6] is: 4th sampling (December 2018), count 14.
Where [7] appears, read: 5th sampling (January 2019), count 12.

“And” between values parts separate entries of the source, which are not always exact repeats. Equal entries are not always repeated. A value given as a limit tells only on which side of the number the result lay.

Take `O=S(=O)(O)C(F)(F)C(F)(F)C(F)(F)C(F)(F)C(F)(F)C(F)(F)C(F)(F)F` [PFHpS, perfluoroheptane sulfonic acid]: the Serum/water ratio in “Serum/water ratio” is listed as 81.3.

On to “Perfluoro-2/6-methylheptanesulfonate [2/6m-PFOS]”, for which, in data set [1], the “Personal average urine/serum ratio, median (range)” value (from here on “Personal average urine/serum ratio”) is 0.0051 (0.00059–0.032). In data set [2] (setting [4]), the “Specific gravity adjusted urinary level, 25 percentile” value is listed as “< LOD”; the “Specific gravity adjusted urinary level, 75 percentile” value is given as “< LOD”; the “Specific gravity adjusted urinary level, Max” value is “< LOD”; the “Specific gravity adjusted urinary level, Median” value is on record as “< LOD”. For the same compound, the “Specific gravity adjusted urinary level, Min” value in data set [2] (setting [4]) was “< LOD”. Also, in data set [2] (setting [5]), the “Specific gravity adjusted urinary level, 25 percentile” value is listed as “< LOD”; the “Specific gravity adjusted urinary level, 75 percentile” value is listed as “< LOD”; the “Specific gravity adjusted urinary level, Max” value is recorded as 0.04 ng/mL; the “Specific gravity adjusted urinary level, Median” value was “< LOD”. Moreover, in data set [2] (setting [5]), the “Specific gravity adjusted urinary level, Min” value is “< LOD”. In addition, in data set [2] (setting [6]), the “Specific gravity adjusted urinary level, 25 percentile” value is recorded as “< LOD”; the “Specific gravity adjusted urinary level, 75 percentile” value was “< LOD”; the “Specific gravity adjusted urinary level, Max” value amounted to 1.60 ng/mL; the “Specific gravity adjusted urinary level, Median” value is reported as “< LOD”. The “Specific gravity adjusted urinary level, Min” value in data set [2] (setting [6]) was “< LOD”. In addition, in data set [2] (setting [7]), the “Specific gravity adjusted urinary level, 25 percentile” value is recorded as “< LOD”; the “Specific gravity adjusted urinary level, 75 percentile” value is given as “< LOD”; the “Specific gravity adjusted urinary level, Max” value was found to be 0.03 ng/mL; the “Specific gravity adjusted urinary level, Median” value is listed as “< LOD”. Besides, the “Specific gravity adjusted urinary level, Min” value in data set [2] (setting [7]) was “< LOD”. The “PFAS serum level, median (range)” value in data set [3] is reported as 0.46 ( <LOD –1.4) ng/mL.

Turning to `O=S(=O)(O)C(F)(F)C(F)(F)C(F)(F)C(F)(F)F` [PFBS, perfluorobutane sulfonic acid], the Serum/water ratio in “Serum/water ratio” is listed as 1.65.

As for “perfluoro-3/4/5-methylheptanesulfonate [3/4/5m-PFOS]”, in data set [3], the “PFAS serum level, median (range)” value is listed as 0.79 (0.10–2.2) ng/mL.

Consider `O=C(O)C(F)(F)C(F)(F)C(F)(F)C(F)(F)C(F)(F)F` [PFHxA, perfluorohexanoic acid], for which the Serum/water ratio in the data set “Serum/water ratio” is 1.15.

In the case of `O=C(O)C(F)(F)C(F)(F)C(F)(F)C(F)(F)C(F)(F)C(F)(F)C(F)(F)F` [PFOA, perfluorooctanoic acid], the “Personal average urine/serum ratio” value in data set [1] is 0.0032 and 0.0032 (0.00066–0.0067). In data set [2] (setting [4]), the “Specific gravity adjusted urinary level, 25 percentile” value stood at 0.02 ng/mL; the “Specific gravity adjusted urinary level, 75 percentile” value is on record as 0.04 ng/mL; the “Specific gravity adjusted urinary level, Max” value is 0.07 ng/mL; the “Specific gravity adjusted urinary level, Median” value amounted to 0.03 ng/mL. The “Specific gravity adjusted urinary level, Min” value in data set [2] (setting [4]) came out at 0.01 ng/mL. Further, in data set [2] (setting [5]), the “Specific gravity adjusted urinary level, 25 percentile” value is 0.02 ng/mL; the “Specific gravity adjusted urinary level, 75 percentile” value was determined as 0.04 ng/mL; the “Specific gravity adjusted urinary level, Max” value amounted to 0.07 ng/mL; the “Specific gravity adjusted urinary level, Median” value was found to be 0.03 ng/mL. In addition, in data set [2] (setting [5]), the “Specific gravity adjusted urinary level, Min” value was determined as 0.01 ng/mL. In addition, in data set [2] (setting [6]), the “Specific gravity adjusted urinary level, 25 percentile” value was 0.02 ng/mL; the “Specific gravity adjusted urinary level, 75 percentile” value came to 0.05 ng/mL; the “Specific gravity adjusted urinary level, Max” value came to 0.13 ng/mL; the “Specific gravity adjusted urinary level, Median” value is on record as 0.04 ng/mL. For the same compound, in data set [2] (setting [6]), the “Specific gravity adjusted urinary level, Min” value turned out to be 0.01 ng/mL. In addition, in data set [2] (setting [7]), the “Specific gravity adjusted urinary level, 25 percentile” value is on record as 0.03 ng/mL; the “Specific gravity adjusted urinary level, 75 percentile” value came to 0.04 ng/mL; the “Specific gravity adjusted urinary level, Max” value is 0.07 ng/mL; the “Specific gravity adjusted urinary level, Median” value was 0.03 ng/mL. Moreover, the “Specific gravity adjusted urinary level, Min” value in data set [2] (setting [7]) is 0.02 ng/mL. In data set [2], the “Specific gravity adjusted urine level, median (range)” value (from here on “Specific gravity adjusted urine level”) is recorded as 0.031 (0.010–0.13) ng/mL. For the same compound, the Serum/water ratio in the data set “Serum/water ratio” is on record as 30.3. In data set [3] (human, serum, read-out: PFAS serum level, median (range)), the concentration at 2016 calendar year of sampling worked out at 1.5 ng/mL.

Turning to `O=S(=O)(O)C(F)(C(F)(F)F)C(F)(F)C(F)(F)C(F)(F)C(F)(F)C(F)(F)C(F)(F)F` (centres unmarked) [1m-PFOS, perfluoro-1-methylheptanesulfonate], in data set [3], the “PFAS serum level, median (range)” value is given as 0.18 ( <LOD –0.59) ng/mL.

On to `O=S(=O)(O)C(F)(F)C(F)(F)C(F)(F)C(F)(F)C(F)(F)F` [PFPeS, perfluoropentane sulfonic acid], for which the “Urine/serum ratio higher than L-PFOS” value in data set [1] (in vivo) was 10 times. In addition, the “Personal average urine/serum ratio” value in data set [1] is listed as 0.0089 (0.0057–0.026). In data set [2] (setting [4]), the “Specific gravity adjusted urinary level, 25 percentile” value is recorded as 0.06 ng/mL; the “Specific gravity adjusted urinary level, 75 percentile” value is listed as 0.08 ng/mL; the “Specific gravity adjusted urinary level, Max” value was 0.11 ng/mL; the “Specific gravity adjusted urinary level, Median” value was 0.07 ng/mL. For the same compound, the “Specific gravity adjusted urinary level, Min” value in data set [2] (setting [4]) came to 0.04 ng/mL. Besides, in data set [2] (setting [5]), the “Specific gravity adjusted urinary level, 25 percentile” value was 0.05 ng/mL; the “Specific gravity adjusted urinary level, 75 percentile” value turned out to be 0.09 ng/mL; the “Specific gravity adjusted urinary level, Max” value is 0.12 ng/mL; the “Specific gravity adjusted urinary level, Median” value was determined as 0.07 ng/mL. Moreover, the “Specific gravity adjusted urinary level, Min” value in data set [2] (setting [5]) is given as 0.02 ng/mL. Further, in data set [2] (setting [6]), the “Specific gravity adjusted urinary level, 25 percentile” value amounted to 0.07 ng/mL; the “Specific gravity adjusted urinary level, 75 percentile” value is listed as 0.08 ng/mL; the “Specific gravity adjusted urinary level, Max” value was determined as 0.12 ng/mL; the “Specific gravity adjusted urinary level, Median” value is reported as 0.08 ng/mL. Further, in data set [2] (setting [6]), the “Specific gravity adjusted urinary level, Min” value is 0.03 ng/mL. In addition, in data set [2] (setting [7]), the “Specific gravity adjusted urinary level, 25 percentile” value was determined as 0.06 ng/mL; the “Specific gravity adjusted urinary level, 75 percentile” value is 0.08 ng/mL; the “Specific gravity adjusted urinary level, Max” value is listed as 0.09 ng/mL; the “Specific gravity adjusted urinary level, Median” value stood at 0.07 ng/mL. Moreover, the “Specific gravity adjusted urinary level, Min” value in data set [2] (setting [7]) is 0.05 ng/mL. The “Specific gravity adjusted urine level” value in data set [2] was 0.072 (0.021–0.12) ng/mL. For the same compound, the Serum/water ratio in the data set “Serum/water ratio” came out at 38.3.

Regarding `O=C(O)C(F)(F)C(F)(F)C(F)(F)C(F)(F)C(F)(F)C(F)(F)F` [PFHpA, perfluoroheptanoic acid], the “Personal average urine/serum ratio” value in data set [1] was 0.086 (0.018–0.32). Further, in data set [2] (setting [4]), the “Specific gravity adjusted urinary level, 25 percentile” value is listed as 0.02 ng/mL; the “Specific gravity adjusted urinary level, 75 percentile” value was 0.04 ng/mL; the “Specific gravity adjusted urinary level, Max” value is listed as 0.05 ng/mL; the “Specific gravity adjusted urinary level, Median” value is 0.03 ng/mL. Further, in data set [2] (setting [4]), the “Specific gravity adjusted urinary level, Min” value was “< LOD”. For the same compound, in data set [2] (setting [5]), the “Specific gravity adjusted urinary level, 25 percentile” value is 0.01 ng/mL; the “Specific gravity adjusted urinary level, 75 percentile” value is given as 0.03 ng/mL; the “Specific gravity adjusted urinary level, Max” value is reported as 0.08 ng/mL; the “Specific gravity adjusted urinary level, Median” value came out at 0.02 ng/mL. The “Specific gravity adjusted urinary level, Min” value in data set [2] (setting [5]) is “< LOD”. For the same compound, in data set [2] (setting [6]), the “Specific gravity adjusted urinary level, 25 percentile” value is reported as 0.01 ng/mL; the “Specific gravity adjusted urinary level, 75 percentile” value was determined as 0.03 ng/mL; the “Specific gravity adjusted urinary level, Max” value amounted to 0.06 ng/mL; the “Specific gravity adjusted urinary level, Median” value turned out to be 0.02 ng/mL. Besides, the “Specific gravity adjusted urinary level, Min” value in data set [2] (setting [6]) is reported as “< LOD”. In data set [2] (setting [7]), the “Specific gravity adjusted urinary level, 25 percentile” value was “< LOD”; the “Specific gravity adjusted urinary level, 75 percentile” value came to 0.03 ng/mL; the “Specific gravity adjusted urinary level, Max” value worked out at 0.06 ng/mL; the “Specific gravity adjusted urinary level, Median” value came to 0.02 ng/mL. In addition, the “Specific gravity adjusted urinary level, Min” value in data set [2] (setting [7]) is recorded as “< LOD”. In data set [2], the “Specific gravity adjusted urine level” value is 0.025 ( <LOD –0.080) ng/mL. Also, in the data set “Serum/water ratio”, the Serum/water ratio amounted to 4.74.

Values taken from paper PMC7351026, “Serum Half-Lives for Short- and Long-Chain Perfluoroalkyl Acids after Ceasing Exposure from Drinking Water Contaminated by Firefighting Foam” (Environmental Health Perspectives, 2020).
